Measurements reported in ChEMBL document CHEMBL3112450, “Synthesis and in vitro antitumor evaluation of primary amine substituted quinazoline linked benzimidazole” (Bioorg Med Chem Lett, 2014).

Assays:
Assay type in all cases: functional
[1] = tested on: A498; assay: Cytotoxicity against human A498 cells assessed as growth inhibition at 10 uM after 48 hrs by SRB assay; conditions: A498, 48 h, read-out: GI
[2] = tested on: HL-60(TB); assay: Cytotoxicity against human HL-60(TB) cells after 48 hrs by SRB assay; conditions: HL-60, 48 h
[3] = tested on: SN12C; assay: Cytotoxicity against human SN12C cells assessed as cell growth at 10^-4 M after 48 hrs by SRB assay; conditions: read-out: Activity
[4] = tested on: CAKI-1; assay: Cytotoxicity against human Caki1 cells assessed as cell growth at 10^-4 M after 48 hrs by SRB assay; conditions: CAKI-1, 48 h, read-out: Activity
[5] = tested on: SF-268; assay: Cytotoxicity against human SF268 cells assessed as cell growth at 10^-7 M after 48 hrs by SRB assay; conditions: SF-268, 48 h, read-out: Activity
[6] = tested on: NCI-H322M; assay: Cytotoxicity against human NCI-H322M cells assessed as cell growth at 10^-7 M after 48 hrs by SRB assay; conditions: read-out: Activity
[7] = tested on: K562; assay: Cytotoxicity against human K562 cells assessed as cell growth at 10^-7 M after 48 hrs by SRB assay; conditions: K562, 48 h, read-out: Activity
[8] = tested on: HL-60(TB); assay: Cytotoxicity against human HL-60(TB) cells assessed as cell growth at 10^-7 M after 48 hrs by SRB assay; conditions: HL-60, 48 h, read-out: Activity
[9] = tested on: DU-145; assay: Cytotoxicity against human DU145 cells assessed as cell growth at 10^-8 M after 48 hrs by SRB assay; conditions: DU-145, 48 h, read-out: Activity
[10] = tested on: PC-3; assay: Cytotoxicity against human PC3 cells assessed as cell growth at 10^-8 M after 48 hrs by SRB assay; conditions: PC-3, 48 h, read-out: Activity
[11] = tested on: A498; assay: Cytotoxicity against human A498 cells assessed as cell growth at 10^-4 M after 48 hrs by SRB assay; conditions: A498, 48 h, read-out: Activity
[12] = tested on: MDA-MB-435; assay: Cytotoxicity against human MDA-MB-435 cells assessed as cell growth at 10^-4 M after 48 hrs by SRB assay; conditions: MDA-MB-435, 48 h, read-out: Activity
[13] = tested on: SF-268; assay: Cytotoxicity against human SF268 cells assessed as cell growth at 10^-4 M after 48 hrs by SRB assay; conditions: SF-268, 48 h, read-out: Activity
[14] = tested on: NCI-H226; assay: Cytotoxicity against human NCI-H226 cells assessed as cell growth at 10^-4 M after 48 hrs by SRB assay; conditions: NCI-H226, 48 h, read-out: Activity
[15] = tested on: HOP-62; assay: Cytotoxicity against human HOP62 cells assessed as cell growth at 10^-4 M after 48 hrs by SRB assay; conditions: HOP-62, 48 h, read-out: Activity
[16] = tested on: SK-MEL-5; assay: Cytotoxicity against human SK-MEL-5 cells assessed as cell growth at 10^-8 M after 48 hrs by SRB assay; conditions: SK-MEL-5, 48 h, read-out: Activity
[17] = tested on: NCI-H322M; assay: Cytotoxicity against human NCI-H322M cells assessed as cell growth at 10^-8 M after 48 hrs by SRB assay; conditions: read-out: Activity
[18] = tested on: HOP-62; assay: Cytotoxicity against human HOP62 cells assessed as cell growth at 10^-8 M after 48 hrs by SRB assay; conditions: HOP-62, 48 h, read-out: Activity
[19] = tested on: MDA-MB-468; assay: Cytotoxicity against human MDA-MB-468 cells after 48 hrs by SRB assay; conditions: MDA-MB-468, 48 h
[20] = tested on: MCF7; assay: Cytotoxicity against human MCF7 cells after 48 hrs by SRB assay; conditions: MCF7, 48 h
[21] = Cytotoxicity against human UO31 cells after 48 hrs by SRB assay; conditions: UO-31, 48 h
[22] = tested on: CAKI-1; assay: Cytotoxicity against human Caki1 cells after 48 hrs by SRB assay; conditions: CAKI-1, 48 h
[23] = tested on: ACHN; assay: Cytotoxicity against human ACHN cells after 48 hrs by SRB assay
[24] = tested on: 786-0; assay: Cytotoxicity against human 786-0 cells after 48 hrs by SRB assay; conditions: 786-0, 48 h
[25] = tested on: M14; assay: Cytotoxicity against human M14 cells after 48 hrs by SRB assay; conditions: M14, 48 h
[26] = tested on: LOX IMVI; assay: Cytotoxicity against human LOXIMVI cells after 48 hrs by SRB assay
[27] = tested on: SF-268; assay: Cytotoxicity against human SF268 cells after 48 hrs by SRB assay; conditions: SF-268, 48 h
[28] = tested on: SW-620; assay: Cytotoxicity against human SW620 cells after 48 hrs by SRB assay; conditions: SW-620, 48 h
[29] = tested on: HCT-15; assay: Cytotoxicity against human HCT15 cells after 48 hrs by SRB assay; conditions: HCT-15, 48 h
[30] = tested on: HCC 2998; assay: Cytotoxicity against human HCC2998 cells after 48 hrs by SRB assay; conditions: HCC 2998, 48 h
[31] = tested on: TK-10; assay: Cytotoxicity against human TK10 cells assessed as cell growth at 10^-6 M after 48 hrs by SRB assay; conditions: TK-10, 48 h, read-out: Activity
[32] = tested on: ACHN; assay: Cytotoxicity against human ACHN cells assessed as cell growth at 10^-6 M after 48 hrs by SRB assay; conditions: read-out: Activity
[33] = Cytotoxicity against human NCI-ADR-RES cells assessed as cell growth at 10^-6 M after 48 hrs by SRB assay; conditions: read-out: Activity
[34] = Cytotoxicity against human OVCAR5 cells assessed as cell growth at 10^-6 M after 48 hrs by SRB assay; conditions: OVCAR-5, 48 h, read-out: Activity
[35] = tested on: LOX IMVI; assay: Cytotoxicity against human LOXIMVI cells assessed as cell growth at 10^-6 M after 48 hrs by SRB assay; conditions: read-out: Activity
[36] = tested on: Malme-3M; assay: Cytotoxicity against human MALME-3M cells assessed as cell growth at 10^-6 M after 48 hrs by SRB assay; conditions: read-out: Activity
[37] = tested on: SF-539; assay: Cytotoxicity against human SF539 cells assessed as cell growth at 10^-6 M after 48 hrs by SRB assay; conditions: SF-539, 48 h, read-out: Activity
[38] = tested on: SW-620; assay: Cytotoxicity against human SW620 cells assessed as cell growth at 10^-6 M after 48 hrs by SRB assay; conditions: SW-620, 48 h, read-out: Activity
[39] = tested on: PC-3; assay: Cytotoxicity against human PC3 cells assessed as cell growth at 10^-7 M after 48 hrs by SRB assay; conditions: PC-3, 48 h, read-out: Activity
[40] = Cytotoxicity against human NCI-ADR-RES cells assessed as cell growth at 10^-7 M after 48 hrs by SRB assay; conditions: read-out: Activity

## C=CCn1c(C)nc2cc(Nc3nc(NCCO)nc4ccccc34)ccc21
[1]
  inhibition of growth at 10 µM: 40%

## C=CCn1c(C)nc2ccc(Nc3nc(Nc4ccc5nc(C)n(CC=C)c5c4)c4ccccc4n3)cc21
[2]
  GI50: 1860 nM
  TGI: 3720 nM
[3]
  growth at 100 µM: -50%
[4]
  growth at 100 µM: -28%
[5]
  growth at 0.1 µM: 86%
[6]
  growth at 0.1 µM: 90%
[7]
  growth at 0.1 µM: 94%
[8]
  growth at 0.1 µM: 94%
[9]
  growth at 0.01 µM: 102%
[10]
  growth at 0.01 µM: 93%
[11]
  growth at 100 µM: -21%
[12]
  growth at 100 µM: -5%
[13]
  growth at 100 µM: -33%
[14]
  growth at 100 µM: -38%
[15]
  growth at 100 µM: -36%
[16]
  growth at 0.01 µM: 94%
[17]
  growth at 0.01 µM: 89%
[18]
  growth at 0.01 µM: 99%
[19]
  GI50: 1220 nM
  TGI: 2480 nM
[20]
  GI50: 1540 nM
  TGI: 2880 nM
[21]
  GI50: 1360 nM
  TGI: 2880 nM
[22]
  GI50: 1720 nM
  TGI: 3360 nM
[23]
  GI50: 1640 nM
  LC50: 5510 nM
  TGI: 3010 nM
[24]
  GI50: 1730 nM
  TGI: 3360 nM
[25]
  GI50: 1620 nM
  TGI: 3040 nM
[26]
  GI50: 1550 nM
[27]
  GI50: 1540 nM
  TGI: 3220 nM
[28]
  GI50: 1500 nM
  TGI: 2940 nM
[29]
  GI50: 1770 nM
  TGI: 3550 nM
[30]
  GI50: 1720 nM
  LC50 (50% lethal concentration): 5560 nM
  TGI: 3090 nM
[31]
  growth at 1 µM: 116%
[32]
  growth at 1 µM: 91%
[33]
  growth at 1 µM: 90%
[34]
  growth at 1 µM: 94%
[35]
  growth at 1 µM: 83%
[36]
  growth at 1 µM: 98%
[37]
  growth at 1 µM: 94%
[38]
  growth at 1 µM: 80%
[39]
  growth at 0.1 µM: 88%
[40]
  growth at 0.1 µM: 95%

## C=CCn1c(C)nc2cc(Nc3nc(Nc4ccc5nc(C)n(CC=C)c5c4)c4ccccc4n3)ccc21
[2]
  GI50: 1780 nM
  TGI: 3650 nM
[3]
  growth at 100 µM: -22%
[4]
  growth at 100 µM: -54%
[5]
  growth at 0.1 µM: 91%
[6]
  growth at 0.1 µM: 91%
[7]
  growth at 0.1 µM: 99%
[8]
  growth at 0.1 µM: 96%
[9]
  growth at 0.01 µM: 99%
[10]
  growth at 0.01 µM: 98%
[11]
  growth at 100 µM: -85%
[12]
  growth at 100 µM: -30%
[13]
  growth at 100 µM: -82%
[14]
  growth at 100 µM: -12%
[15]
  growth at 100 µM: -38%
[16]
  growth at 0.01 µM: 100%
[17]
  growth at 0.01 µM: 92%
[18]
  growth at 0.01 µM: 98%
[19]
  GI50: 216 nM
  LC50 (concentration killing 50% of cells): > 100000 nM
  TGI: 578 nM
[20]
  GI50: 209 nM
[21]
  GI50: 1340 nM
  LC50 (concentration causing 50% net cell kill): 5170 nM
  TGI: 2630 nM
[22]
  GI50: 1610 nM
  LC50 (concentration causing 50% net cell kill): 5690 nM
  TGI: 3030 nM
[23]
  GI50: 610 nM
  TGI: 1830 nM
[24]
  GI50: 188 nM
  TGI: 362 nM
[25]
  GI50: 1430 nM
  TGI: 3240 nM
[26]
  GI50: 180 nM
  LC50: 640 nM
  TGI: 339 nM
[27]
  GI50: 1040 nM
  LC50 (50% lethal concentration): 4730 nM
  TGI: 2210 nM
[28]
  GI50: 195 nM
  TGI: 388 nM
[29]
  GI50: 352 nM
[30]
  GI50: 1200 nM
  LC50 (50% lethal concentration): 5030 nM
  TGI: 2450 nM
[31]
  growth at 1 µM: 30%
[32]
  growth at 1 µM: 35%
[33]
  growth at 1 µM: 85%
[34]
  growth at 1 µM: 20%
[35]
  growth at 1 µM: -85%
[36]
  growth at 1 µM: 120%
[37]
  growth at 1 µM: 56%
[38]
  growth at 1 µM: -69%
[39]
  growth at 0.1 µM: 96%
[40]
  growth at 0.1 µM: 100%
